Experimental data: patent US9546355B2, “Conditional replicating cytomegalovirus as a vaccine for CMV” (Merck Sharp & Dohme Corp., priority 2011, dated 2017)

Legend:
FKBP = conditions: tighter binding; Clackson et al., 1998; cited from earlier work
ARPE-19 cells = assay: Shield-1 concentration dependent progeny virus production (TCID50 assay); assay type: cell-based; conditions: rdCMV in ARPE-19 cells and other human primary cells
Experimental: ARPE-19 cells were infected with the rdCMV viruses at a multiplicity of 0.01 PFU/cell for 1 h, washed twice with fresh medium, and incubated in the growth medium containing 0, 0.05, 0.1 0.5 or 2 μM of Shield-1. Seven days post infection, the cell free virus was collected, and virus titers were determined by TCID50 assay on ARPE-19 cells in the presence of 2 μM of Shield 1.
Varying concentrations of Shld-1 were used in additional experiments to further assess viral replication in the presence or absence of Shld-1. ARPE-19 cells were infected by the gH expressing CMV that also contained a FKBP derivative fused to an essential protein at MOI of […]. After infection for 1 hour, the cells were washed twice with fresh medium to remove the Shld-1 from the inoculums. The inoculums were then added to ARPE-19 cells cultured in medium containing 0.05, 0.1, 0.5 or 2 μM of Shield-1. Seven days post infection, the cell-free progeny virus in the supernatant was collected and titrated on ARPE-19 cells supplemented with […] of Shield-1. Virus titers were determined by a 50% Tissue Culture Infective Dose (TCID50) assay. Briefly, this dilution assay quantifies the amount of virus required to kill 50% of infected hosts. […] After incubation, the percentage of cell death (i.e. infected cells) was manually observed and recorded for each virus dilution. […]

In the case of `CC[C@H](C(=O)N1CCCC[C@H]1C(=O)O[C@H](CCc1ccc(OC)c(OC)c1)c1cccc(OCCN2CCOCC2)c1)c1cc(OC)c(OC)c(OC)c1` [Shield-1], the “Binding to the F36V derivative compared to wild-type FKBP” value (FKBP) is listed as “about 1,000 fold” and the “Molar concentration of Shield-1 in the culture medium required to sustain viral replication” value (ARPE-19 cells) is listed as “greater than 0.1 μM”.
